Data taken from patent US20260315487A1, “IKK-ALPHA INHIBITORS” (Cancer Research Technology Limited, priority 2023, published 2026).

Experiments:
IKKβ = biological target: T1, IKKβ (Homo sapiens, UniProt O14920); assay: in-house DELFIA kinase assay, IKKβ; assay type: biochemical
T1 sequence (O14920 1-756): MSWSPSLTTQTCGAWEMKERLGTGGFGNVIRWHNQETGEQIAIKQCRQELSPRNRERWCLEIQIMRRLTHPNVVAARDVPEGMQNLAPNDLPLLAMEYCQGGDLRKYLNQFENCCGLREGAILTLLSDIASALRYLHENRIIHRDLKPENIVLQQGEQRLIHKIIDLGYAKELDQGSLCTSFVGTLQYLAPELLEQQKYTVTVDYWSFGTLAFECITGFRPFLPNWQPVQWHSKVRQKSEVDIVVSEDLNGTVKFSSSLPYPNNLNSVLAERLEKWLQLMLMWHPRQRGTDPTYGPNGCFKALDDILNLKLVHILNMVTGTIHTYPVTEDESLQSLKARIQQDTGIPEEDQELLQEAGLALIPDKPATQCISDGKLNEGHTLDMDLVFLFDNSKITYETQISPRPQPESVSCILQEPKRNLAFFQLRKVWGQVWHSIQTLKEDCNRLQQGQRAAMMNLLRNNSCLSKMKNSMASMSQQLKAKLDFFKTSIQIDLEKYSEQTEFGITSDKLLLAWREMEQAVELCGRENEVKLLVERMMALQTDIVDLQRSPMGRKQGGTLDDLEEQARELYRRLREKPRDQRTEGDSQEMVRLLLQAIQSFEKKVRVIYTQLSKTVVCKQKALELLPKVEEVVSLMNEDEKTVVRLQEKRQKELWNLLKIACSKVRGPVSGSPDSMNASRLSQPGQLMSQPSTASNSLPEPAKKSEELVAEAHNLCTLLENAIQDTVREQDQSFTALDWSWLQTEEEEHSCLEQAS
Description: (§1) To examine the pyrrolo[2,3 -b]pyridines as an alternative scaffold, we adopted the AIPP core because it had similar dimensions to 1 SU909, with HBD/HBA motifs positioned at the scaffold extremities to interact with both the hinge region and the G-loop wall of IKKα, a rationale we had previously proposed as the basis for imparting selectivity. A preliminary set of AIPP derivatives was designed to explore its utility as an IKK-targeting scaffold, whilst incorporating additional functionality through which to introduce selectivity for the IKKα isoform (2-4 SU1087, SU1266 and SU1253; FIG. 3). This was achieved by initially adopting two different approaches: either appending a hydrophobic moiety to the pyrrolo[2,3 -b]pyridine motif as a fused form to afford the tricyclic derivatives 2 and 3 SU1266 and SU1087, or as a phenyl substituent to introduce flexibility with the central pyrrolo[2,3 -b]pyridine moiety in 4 SU1253 .

IKKα = biological target: T2, IKKα (Homo sapiens, UniProt O15111); assay: in-house DELFIA kinase assay, IKKα; assay type: biochemical
T2 sequence (O15111 1-745): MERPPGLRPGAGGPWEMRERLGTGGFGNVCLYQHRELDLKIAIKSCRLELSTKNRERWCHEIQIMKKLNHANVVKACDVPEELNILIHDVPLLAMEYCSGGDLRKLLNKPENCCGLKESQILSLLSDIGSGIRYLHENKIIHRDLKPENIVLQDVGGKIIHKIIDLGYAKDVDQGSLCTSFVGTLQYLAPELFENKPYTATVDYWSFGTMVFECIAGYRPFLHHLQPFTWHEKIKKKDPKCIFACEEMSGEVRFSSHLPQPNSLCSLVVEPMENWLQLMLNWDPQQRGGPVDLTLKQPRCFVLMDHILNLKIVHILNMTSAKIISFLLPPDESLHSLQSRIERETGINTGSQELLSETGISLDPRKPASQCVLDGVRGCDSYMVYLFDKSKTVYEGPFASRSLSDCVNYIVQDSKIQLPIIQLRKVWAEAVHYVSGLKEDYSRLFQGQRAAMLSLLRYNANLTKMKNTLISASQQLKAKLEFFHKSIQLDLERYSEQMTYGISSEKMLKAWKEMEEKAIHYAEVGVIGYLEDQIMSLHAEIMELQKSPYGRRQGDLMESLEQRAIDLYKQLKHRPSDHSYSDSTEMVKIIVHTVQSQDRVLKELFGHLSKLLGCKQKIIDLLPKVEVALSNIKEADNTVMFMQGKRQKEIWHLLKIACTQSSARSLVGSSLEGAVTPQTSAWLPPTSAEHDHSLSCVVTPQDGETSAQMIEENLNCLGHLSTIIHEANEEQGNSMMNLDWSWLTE
Description: as §1, with “SU1253 . […] The pyrrolo[2,3 -b]pyridine was bound to the hinge region in the classical HBA/HBD motif with the GK+3 NH and C═O backbone, whilst the aminoindazole projected towards the top of the pocket to interact with the G-loop (FIG. 4A). […] In both isoforms, the 2 -phenyl moiety was oriented out from the hinge towards the exposed solvent area.” for “SU1253 .”

Row | Structure (SMILES) | Ki (IKKβ) [nM] | Ki (IKKα) [nM] | IKKβ inhibition, in words (IKKβ)
1 | Nc1n[nH]c2ccc(-c3ccnc4[nH]c5c(c34)CCCC5)cc12 [2 SU1266, 5-(6,7,8,9 -Tetrahydro-5 H-pyrido[2,3-b]indol-4-yl)-1 H-indazol-3-amine] | 77 | 2 | –
2 | Nc1n[nH]c2ccc(-c3ccnc4[nH]c5ccccc5c34)cc12 [3 SU1087, 5-(9 H-pyrido[2,3-b]indol-4-yl)-1 H-indazol-3-amine] | 5 | 3 | –
3 | Nc1n[nH]c2ccc(-c3ccnc4[nH]c(-c5ccccc5O)cc34)cc12 [5a SU1354, 2-(4-(3 -Amino-1 H-indazol-5-yl)-1 H-pyrrolo[2,3-b]pyridin-2-yl)phenol] | 42 | 4 | –
4 | Nc1n[nH]c2ccc(-c3ccnc4[nH]c(-c5cccc(S(=O)(=O)N6CCOCC6)c5)cc34)cc12 [5aa SU1311, 5-(2-(3-(Morpholinosulfonyl)phenyl)-1 H-pyrrolo[2,3-b]pyridin-4-yl)-1 H-indazol-3-amine] | 149 | 25 | –
5 | CCOc1ccccc1-c1cc2c(-c3ccc4[nH]nc(N)c4c3)ccnc2[nH]1 [5b SU1368, 5-(2-(2 -Ethoxyphenyl)-1 H-pyrrolo[2,3-b]pyridin-4-yl)-1 H-indazol-3-amine] | 86 | 8 | –
6 | Nc1cccc(-c2cc3c(-c4ccc5[nH]nc(N)c5c4)ccnc3[nH]2)c1 [5c SU1304, 5-(2-(3 -Aminophenyl)-1 H-pyrrolo[2,3-b]pyridin-4-yl)-1 H-indazol-3-amine] | 28 | 5 | –
7 | Nc1n[nH]c2ccc(-c3ccnc4[nH]c(-c5cccc(O)c5)cc34)cc12 [5d SU1348, 3-(4-(3 -Amino-1 H-indazol-5-yl)-1 H-pyrrolo[2,3-b]pyridin-2-yl)phenol] | 26 | 5 | –
8 | COc1cccc(-c2cc3c(-c4ccc5[nH]nc(N)c5c4)ccnc3[nH]2)c1 [5e SU1332, 5-(2-(3 -Methoxyphenyl)-1 H-pyrrolo[2,3-b]pyridin-4-yl)-1 H-indazol-3-amine] | 40 | 5 | –
9 | Nc1n[nH]c2ccc(-c3ccnc4[nH]c(-c5cc(O)cc(F)c5)cc34)cc12 [5f SU1384, 3-(4-(3 -Amino-1 H-indazol-5-yl)-1 H-pyrrolo[2,3-b]pyridin-2-yl)-5-fluorophenol] | 42 | 4 | –
10 | COc1cc(F)cc(-c2cc3c(-c4ccc5[nH]nc(N)c5c4)ccnc3[nH]2)c1 [5g SU1373, 5-(2-(3 -Fluoro-5-methoxyphenyl)-1 H-pyrrolo[2,3-b]pyridin-4-yl)-1 H-indazol-3-amine] | 32 | 3 | –
11 | Nc1n[nH]c2ccc(-c3ccnc4[nH]c(-c5cccc(C(=O)O)c5)cc34)cc12 [5h SU1303, 3-(4-(3 -Amino-1 H-indazol-5-yl)-1 H-pyrrolo[2,3-b]pyridin-2-yl)benzoic acid] | 168 | 8 | –
12 | NC(=O)c1cccc(-c2cc3c(-c4ccc5[nH]nc(N)c5c4)ccnc3[nH]2)c1 [5i SU1294, 3-(4-(3 -Amino-1 H-indazol-5-yl)-1 H-pyrrolo[2,3-b]pyridin-2-yl)benzamide] | 159 | 5 | –
13 | CS(=O)(=O)Nc1cccc(-c2cc3c(-c4ccc5[nH]nc(N)c5c4)ccnc3[nH]2)c1 [5j SU1288, N-(3-(4-(3 -Amino-1 H-indazol-5-yl)-1 H-pyrrolo[2,3-b]pyridin-2-yl)phenyl)methanesulfonamide] | 109 | 3 | –
14 | CS(=O)(=O)c1cccc(-c2cc3c(-c4ccc5[nH]nc(N)c5c4)ccnc3[nH]2)c1 [5k SU1374, 5-(2-(3-(Methylsulfonyl)phenyl)-1 H-pyrrolo[2,3-b]pyridin-4-yl)-1 H-indazol-3-amine] | 36 | 3 | –
15 | COCCC(=O)Nc1cccc(-c2cc3c(-c4ccc5[nH]nc(N)c5c4)ccnc3[nH]2)c1 [5l SU1317, N-(3-(4-(3 -Amino-1 H-indazol-5-yl)-1 H-pyrrolo[2,3-b]pyridin-2-yl)phenyl)-3-methoxypropanamide] | 25 | 6 | good IKKβ inhibition
16 | COCCNC(=O)c1cccc(-c2cc3c(-c4ccc5[nH]nc(N)c5c4)ccnc3[nH]2)c1 [5m SU1316, 3-(4-(3 -Amino-1 H-indazol-5-yl)-1 H-pyrrolo[2,3-b]pyridin-2-yl)-N-(2-methoxyethyl)benzamide] | 107 | 15 | good IKKβ inhibition
17 | Nc1n[nH]c2ccc(-c3ccnc4[nH]c(-c5cccc(CNc6ccccc6)c5)cc34)cc12 [5p SU1549, 5-(2-(3-((Phenylamino)methyl)phenyl)-1 H-pyrrolo[2,3-b]pyridin-4-yl)-1 H-indazol-3-amine] | 470 | 35 | lowest activity against IKKβ
18 | Nc1n[nH]c2ccc(-c3ccnc4[nH]c(-c5ccccc5OCc5ccccc5)cc34)cc12 [5q SU1353, 5-(2-(2-(Benzyloxy)phenyl)-1 H-pyrrolo[2,3-b]pyridin-4-yl)-1 H-indazol-3-amine] | 1060 | 57 | lowest activity against IKKβ
19 | Cc1ccc(S(=O)(=O)Nc2cccc(-c3cc4c(-c5ccc6[nH]nc(N)c6c5)ccnc4[nH]3)c2)cc1 [5t SU1278, N-(3-(4-(3 -Amino-1 H-indazol-5-yl)-1 H-pyrrolo[2,3-b]pyridin-2-yl)phenyl)-4-methylbenzensulfonamide] | 1050 | 10 | lowest activity against IKKβ
20 | CN1CCN(C(=O)c2cccc(-c3cc4c(-c5ccc6[nH]nc(N)c6c5)ccnc4[nH]3)c2)CC1 [5v SU1312, (3-(4-(3 Amino-1 H-indazol-5-yl)-1 H-pyrrolo[2,3-b]pyridin-2-yl)phenyl)(4-methylpiperazin-1-y)methanone] | 215 | 24 | –
21 | Nc1n[nH]c2ccc(-c3ccnc4[nH]c(-c5cccc(OCc6ccccn6)c5)cc34)cc12 [5w SU1324, 5-(2-(3-(pyridin-2-ylmethoxy)phenyl)-1 H-pyrrolo[2,3-b]pyridin-4-yl)-1 H-indazol-3-amine] | 402 | 16 | lowest activity against IKKβ
22 | Nc1n[nH]c2ccc(-c3ccnc4[nH]c(-c5cccc(OCC6CCOCC6)c5)cc34)cc12 [5x SU1335, 5-(2-(3-((Tetrahydro-2 H-pyran-4-yl)methoxy)phenyl)-1 H-pyrrolo[2,3-b]pyridin-4-yl)-1 H-indazol-3-amine] | 122 | 8 | good IKKβ inhibition
